How the values were obtained:
Format in all cases: biochemical
[1] = biological target: T1, KDR kinase (Homo sapiens, UniProt P35968, DEL940-989/E990V); assay: KDR kinase assay K2 (as K1, 2.1 nM enzyme, 2 h pre-incubation, 1.0 mM ATP); conditions: Method K2; read-out: KDR Data (IC50)
Description: (§1) IC50 values were calculated from a series of percent inhibition values determined at a range of inhibitor concentrations using software routines as implemented in the GraphPad Prism software package.

[2] = biological target: B-Raf(V599E) kinase (Homo sapiens, UniProt P15056, V600E); assay: B-Raf(V599E) kinase assay B1 (construct 1, MEK1 substrate, coupled spectrophotometric)
Sequence of B-Raf(V599E) kinase (P15056 with tags, fused parts or gaps V600E): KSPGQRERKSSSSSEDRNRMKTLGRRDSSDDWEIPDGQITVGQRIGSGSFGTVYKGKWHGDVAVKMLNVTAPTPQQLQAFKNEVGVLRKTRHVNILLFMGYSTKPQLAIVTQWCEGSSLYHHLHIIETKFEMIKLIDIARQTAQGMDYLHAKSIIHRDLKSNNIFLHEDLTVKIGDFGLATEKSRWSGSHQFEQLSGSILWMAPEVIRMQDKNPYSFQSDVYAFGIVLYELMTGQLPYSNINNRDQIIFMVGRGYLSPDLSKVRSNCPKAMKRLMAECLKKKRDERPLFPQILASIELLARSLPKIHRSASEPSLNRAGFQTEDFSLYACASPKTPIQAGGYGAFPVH
Description: The test compounds were incubated with the reaction mixtureat 30° C. for 2 h. […] The reaction rate was calculated using the […] time frame. […] IC50 values were calculated from a series of percent inhibition values determined at a range of inhibitor concentrations using software routines as implemented in the GraphPad Prism software package.

[3] = biological target: phosphorylated p-38-alpha kinase (Homo sapiens, UniProt Q16539); assay: P-38 alpha kinase assay P1 (coupled spectrophotometric, 2 h pre-incubation); conditions: method P1 (2 h pre-incubation); read-out: P-38 Data
Sequence of phosphorylated p-38-alpha kinase (Q16539 1-360 isoform Q16539-2): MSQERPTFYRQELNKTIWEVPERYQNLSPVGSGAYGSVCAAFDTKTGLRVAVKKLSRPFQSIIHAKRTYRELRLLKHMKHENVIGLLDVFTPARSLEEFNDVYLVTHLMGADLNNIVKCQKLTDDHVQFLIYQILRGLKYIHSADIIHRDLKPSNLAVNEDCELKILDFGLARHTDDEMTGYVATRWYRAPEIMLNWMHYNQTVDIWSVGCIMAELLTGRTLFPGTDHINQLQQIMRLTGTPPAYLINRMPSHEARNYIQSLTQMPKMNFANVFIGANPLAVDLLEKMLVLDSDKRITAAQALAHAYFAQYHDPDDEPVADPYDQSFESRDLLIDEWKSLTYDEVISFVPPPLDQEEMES

[4] = biological target: T2, Abl kinase (Homo sapiens, UniProt P00519); assay: Abl kinase assay A1 (pyruvate kinase/lactate dehydrogenase coupled, spectrophotometric); conditions: Method A1; read-out: Abl Data (IC50)
T2 sequence (P00519 229-512): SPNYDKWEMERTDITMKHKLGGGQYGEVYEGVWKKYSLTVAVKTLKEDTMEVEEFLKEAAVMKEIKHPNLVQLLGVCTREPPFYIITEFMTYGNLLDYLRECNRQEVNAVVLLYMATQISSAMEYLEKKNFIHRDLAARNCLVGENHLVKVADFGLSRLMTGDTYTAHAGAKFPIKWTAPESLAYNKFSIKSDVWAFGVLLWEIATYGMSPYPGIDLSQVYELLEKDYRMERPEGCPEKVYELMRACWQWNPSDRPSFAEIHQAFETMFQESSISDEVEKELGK
Description: as §1

[5] = biological target: T1, KDR kinase; assay: KDR kinase assay K1 (pyruvate kinase/lactate dehydrogenase coupled, spectrophotometric); conditions: Method K1; read-out: KDR Data (IC50)
Description: as §1

T1 sequence (P35968 with tags, fused parts or gaps DEL940-989/E990V): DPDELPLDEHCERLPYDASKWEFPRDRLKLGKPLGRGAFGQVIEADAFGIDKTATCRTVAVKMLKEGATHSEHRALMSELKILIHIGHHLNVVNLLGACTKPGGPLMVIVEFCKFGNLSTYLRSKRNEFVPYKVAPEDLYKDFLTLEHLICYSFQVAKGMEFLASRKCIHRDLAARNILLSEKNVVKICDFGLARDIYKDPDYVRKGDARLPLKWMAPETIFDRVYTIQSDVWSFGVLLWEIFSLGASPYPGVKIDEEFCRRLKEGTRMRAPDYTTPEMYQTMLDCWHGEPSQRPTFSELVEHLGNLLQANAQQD

Compound	IC50 [1]	IC50 [2]	further results
CC(C)(C)c1cc(NC(=O)Nc2cccc(F)c2F)n(-c2ccc(CC(=O)O)cc2)n1 [Example 382, 2-(4-(3-t-butyl-5-(3-(2,3-difluorophenyl)ureido)-1H-pyrazol-1-yl)phenyl)acetic acid]	10300 nM	77 nM	
CC(C)(C)c1cc(NC(=O)Nc2cccc3ccccc23)n(-c2ccc3c(c2)CNCC3)n1 [Example 349]	4100 nM		IC50 [3]: 30 nM
CC(C)(C)c1cc(NC(=O)Nc2ccc(F)c(F)c2)n(-c2cccc(C#N)c2)n1 [Example 206, 1-(3-t-butyl-1-(3-cyanophenyl)-1H-pyrazol-5-yl)-3-(3,4-difluorophenyl)urea]	480 nM		
Cn1[nH]c(=O)n(Cc2cccc(-n3nc(C(C)(C)C)cc3NC(=O)Nc3cccc(Cl)c3Cl)c2)c1=O [Example 268, 1-{5-t-butyl-2-[3-(1-methyl-3,5-dioxo-[1,2,4]triazolidin-4-ylmethyl)-phenyl]-2H-pyrazol-3-yl}-3-(2,3-dichloro-phenyl)-urea]	2600 nM	11 nM	
CC(C)(C)c1cc(NC(=O)N[C@H]2CCc3ccccc32)n(-c2ccc3c(c2)CCNC3)n1 [Example 199, 1-(3-t-butyl-1-(1,2,3,4-tetrahydroisoquinolin-6-yl)-1H-pyrazol-5-yl)-3-((S)-2,3-dihydro-1H-inden-1-yl)urea]	34400 nM		
CCOC(=O)C1CCN(C(=O)Cc2ccc(-n3nc(C(C)(C)C)cc3NC(=O)Nc3cccc(Cl)c3Cl)cc2)CC1 [Example 497]	1200 nM	47 nM	
COc1cccc(-n2nc(C(C)(C)C)cc2NC(=O)Nc2cccc(Br)c2)c1 [Example 232, 1-(3-t-butyl-1-(3-methoxyphenyl)-1H-pyrazol-5-yl)-3-(3-bromophenyl)urea]	2600 nM	38 nM	
CC(C)(C)c1cc(NC(=O)Nc2cccc(Cl)c2Cl)n(-c2cccc(Br)c2)n1 [Example 49, 1-(1-(3-bromophenyl)-3-t-butyl-1H-pyrazol-5-yl)-3-(2,3-dichlorophenyl)urea]	86 nM	3.8 nM	
CC(C)(C)c1cc(NC(=O)Nc2cccc3ccccc23)n(-c2ccc3c(c2)C(=O)NCC3)n1 [Example 348, 1-[3-t-butyl-1-(1-oxo-1,2,3,4-tetrahydroisoquinolin-7-yl)-1 H-pyrazol-5-yl]-3-(naphthalen-1-yl)urea]	16500 nM		
CC(C)(C)c1cc(NC(=O)Nc2cccc3ccccc23)n(-c2cccc(CCO)c2)n1 [Example 341, 1-{3-t-butyl-1-[3-(2-hydroxyethyl)phenyl]-1H-pyrazol-5-yl}-3-(naphthalen-1-yl)urea]	5500 nM		IC50 [3]: 27 nM
CC(C)(C)c1cc(NC(=O)Nc2ccc(Cl)cc2)n(-c2cccc(CCO)c2)n1 [Example 342, 1-{3-t-butyl-1-[3-(2-hydroxyethyl)phenyl]-1H-pyrazol-5-yl}-3-(4-chlorophenyl)-urea]	5700 nM		
CC(C)(C)c1cc(NC(=O)Nc2ccc(Cl)cc2)n(-c2ccc3ncccc3c2)n1 [Example 339, 1-[3-t-butyl-1-(quinolin-6-yl)-1H-pyrazol-5-yl]-3-(4-chlorophenyl)urea]	1200 nM		
CC(C)(C)c1cc(NC(=O)Nc2cccc(F)c2F)n(-c2ccc3ncccc3c2)n1 [Example 283, 1-(3-t-butyl-1-(quinolin-6-yl)-1H-pyrazol-5-yl)-3-(2,3-difluorophenyl)urea]	440 nM	6.4 nM	
CCOC(=O)C1CCCN(C(=O)Cc2cccc(-n3nc(C(C)(C)C)cc3NC(=O)Nc3cccc(Cl)c3Cl)c2)C1 (centres unmarked) [Example 397, ethyl 1-[2-(3-{3-t-butyl-5-[3-(2,3-dichlorophenyl)ureido]-1H-pyrazol-1-yl}phenyl)acetyl]piperidine-3-carboxylate]	3400 nM	57 nM	
CC(C)(C)c1cc(NC(=O)Nc2ccc(Cl)cc2)n(-c2cccc(CNC(=O)N3CCOCC3)c2)n1 [Example 343, 1-(3-t-butyl-1-{3-[(morpholine-4-carboxamido)methyl]phenyl}-1H-pyrazol-5-yl)-3-(4-chlorophenyl)urea]	18000 nM		
CC(C)(C)c1cc(NC(=O)Nc2ccc(F)c(F)c2F)n(-c2ccc3[nH]c(=O)ccc3c2)n1 [Example 333, 1-(3-t-butyl-1-(2-oxo-1,2-dihydroquinolin-6-yl)-1H-pyrazol-5-yl)-3-(2,3,4-trifluorophenyl)urea]	230 nM	3.4 nM	

Compound	IC50 [1]	IC50 [2]	further results
CC(C)(C)c1cc(NC(=O)Nc2cccc(Cl)c2Cl)n(-c2cccc(CC(=O)N3CCS(=O)(=O)CC3)c2)n1 [Example 396, 1-(3-t-butyl-1-{3-[2-(1,1-dioxo-1[…]6-thiomorpholin-4-yl)-2-oxoethyl]phenyl}-1H-pyrazol-5-yl)-3-(2,3-dichlorophenyl)urea]	3100 nM	32 nM	
CCOC(=O)C1CCN(C(=O)Cc2cccc(-n3nc(C(C)(C)C)cc3NC(=O)Nc3cccc(Cl)c3Cl)c2)CC1 [Example 344, ethyl 1-[2-(3-{3-t-butyl-5-[3-(2,3-dichlorophenyl)ureido]-1H-pyrazol-1-yl}phenyl)acetyl]piperidine-4-carboxylate]	2700 nM		
COc1cccc(-n2nc(C(C)(C)C)cc2NC(=O)Nc2ccc(Cl)c(Cl)c2)c1 [Example 337, 1-(3-t-butyl-1-(3-methoxyphenyl)-1H-pyrazol-5-yl)-3-(3,4-dichlorophenyl)urea]	2000 nM		
CC(C)(C)c1cc(NC(=O)Nc2cccc(F)c2F)n(-c2ccc3c(c2)CCNC(=O)C3)n1 [Example 334, 1-(3-t-butyl-1-(2-oxo-2,3,4,5-tetrahydro-1H-benzo[d]azepin-7-yl)-1 H-pyrazol-5-yl)-3-(2,3-difluorophenyl)urea]	3400 nM	11 nM	
CC(C)(C)c1cc(NC(=O)Nc2cc(F)cc(F)c2F)n(-c2cccc(C#N)c2)n1 [Example 209, 1-(3-t-butyl-1-(3-cyanophenyl)-1H-pyrazol-5-yl)-3-(2,3,5-trifluorophenyl)urea]	260 nM		
CC(C)(C)c1cc(NC(=O)Nc2cccc(F)c2F)n(-c2ccc(CCO)cc2)n1 [Example 262, 1-(3-t-butyl-1-(4-(2-hydroxyethyl)phenyl)-1H-pyrazol-5-yl)-3-(2,3-difluoro-phenyl)urea]	2700 nM	34 nM	
CC(C)(C)c1cc(NC(=O)Nc2ccccc2F)n(-c2cccc(CCC(=O)O)c2)n1 [Example 265, 3-(3-{3-t-butyl-5-[3-(2-fluorophenyl)ureido]-1H-pyrazol-1-yl}-phenyl)propionic acid]	9800 nM	14 nM	
CC(C)(C)c1cc(NC(=O)Nc2ccc(Cl)cc2)n(-c2cccc(CN3C(=O)C(=O)NS3(=O)=O)c2)n1 [Example 225, 1-{5-t-butyl-2-[3-(1,1,3,4-tetraoxo-1λ^6-[1,2,5]thiadiazolidin-2-ylmethyl)phenyl]-2H-pyrazol-3-yl}-3-(4-chlorophenyl)urea]	9600 nM	170 nM	
CC(C)(C)c1cc(NC(=O)Nc2cccc(Cl)c2Cl)n(-c2ccc3c(c2)NCC3)n1 [Example 112, 1-(3-t-butyl-1-(indolin-6-yl)-1H-pyrazol-5-yl)-3-(2,3-dichlorophenyl)urea]		2.9 nM	IC50 [3]: 12 nM; IC50 [4]: 480 nM; IC50 [5]: 210 nM
CC(C)(C)c1cc(NC(=O)Nc2cccc(Cl)c2Cl)n(-c2ccc3c(c2)CN[C@H](C(N)=O)C3)n1 [Example 178, 1-(3-t-butyl-1-((3S)-3-carbamoyl-1,2,3,4-tetrahydroisoquinolin-7-yl)-1 H-pyrazol-5-yl)-3-(2,3-dichlorophenyl)urea]		2 nM	IC50 [3]: 46 nM; IC50 [4]: 230 nM; IC50 [5]: 180 nM
CC(C)(C)c1cc(NC(=O)Nc2cc(F)cc(F)c2)n(-c2cccc(C#N)c2)n1 [Example 208, 1-(3-t-butyl-1-(3-cyanophenyl)-1H-pyrazol-5-yl)-3-(3,5-difluorophenyl)urea]	470 nM		
CC(C)(C)c1cc(NC(=O)Nc2cc(F)c(F)cc2F)n(-c2ccc3[nH]c(=O)ccc3c2)n1 [Example 330]	390 nM	3.2 nM	
CC(C)(C)c1cc(NC(=O)Nc2ccc(F)cc2F)n(-c2ccc3c(c2)CCN(S(C)(=O)=O)C3)n1 [Example 200, 1-(3-t-butyl-1-(2-(methylsulfonyl)-1,2,3,4-tetrahydroisoquinolin-6-yl)-1H-pyrazol-5-yl)-3-(2,4-difluorophenyl)urea]	2700 nM		
CCOC(=O)C1CCCN(C(=O)Cc2ccc(-n3nc(C(C)(C)C)cc3NC(=O)Nc3cccc(Cl)c3Cl)cc2)C1 (centres unmarked) [Example 346, ethyl 1-[2-(4-{3-t-butyl-5-[3-(2,3-dichlorophenyl)ureido]-1H-pyrazol-1-yl}phenyl)acetyl]piperidine-3-carboxylate]	1700 nM		
COc1cccc(-n2nc(C(C)(C)C)cc2NC(=O)Nc2ccc([N+](=O)[O-])cc2)c1 [Example 338, 1-(3-t-butyl-1-(3-methoxyphenyl)-1H-pyrazol-5-yl)-3-(4-nitrophenyl)urea]	5000 nM		

— patent US8163756B2 (priority 2004, dated 2012)
